Experimental data taken from US6790865B2, “2-methylpropionic acid derivatives and pharmaceutical compositions comprising the same” (Kissei Pharmaceutical Co., Ltd., priority 1998, dated 2004).
pEC50: −log10 of the molar value. Where a name gives a salt, the structure may show the parent alone.

What was measured:
[1] = target: T1, β1-adrenoceptor (Rattus norvegicus, UniProt P18090); experiment: β1-adrenoceptor stimulating effects, isolated rat atria heart rate increase (Magnus method); format: cell-based; settings: isolated male SD rat atria; 100% = heart rate increase after 10^−8M isoproterenol; read-out: EC50 (concentration producing 50% increase of heart rate)
T1 construct: Atria of male SD rats (250 to 400 g in body weight) were isolated; from tissue; host or cells: isolated atria of male SD rats
T1 sequence (P18090 whole entry): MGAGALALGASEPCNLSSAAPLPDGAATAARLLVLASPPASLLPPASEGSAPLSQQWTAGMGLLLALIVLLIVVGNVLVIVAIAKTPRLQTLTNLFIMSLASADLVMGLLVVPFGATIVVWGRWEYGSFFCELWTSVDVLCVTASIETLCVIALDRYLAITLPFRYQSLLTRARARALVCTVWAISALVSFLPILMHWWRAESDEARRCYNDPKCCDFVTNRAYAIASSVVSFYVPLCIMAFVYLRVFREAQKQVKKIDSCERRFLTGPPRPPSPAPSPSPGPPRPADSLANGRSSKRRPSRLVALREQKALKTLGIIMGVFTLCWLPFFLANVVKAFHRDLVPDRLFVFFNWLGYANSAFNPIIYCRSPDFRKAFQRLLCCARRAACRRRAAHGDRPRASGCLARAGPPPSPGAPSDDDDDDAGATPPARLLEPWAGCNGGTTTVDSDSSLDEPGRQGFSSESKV
Procedure: Namely, atria of rats were isolated and preparations were made. The experiment was conducted according to the Magnus method. The increment of heart rate after the addition of isoproterenol (10^−8M) was expressed as 100%. The drug was added cumulatively. The β1-adrenoceptor stimulating effects were evaluated as the concentration of the drug required to produce 50% increase of heart rate (i.e., EC50 value).
The Experiment for Measuring β1-Adrenoceptor Stimulating Effects
Atria of male SD rats (250 to 400 g in body weight) were isolated and the experiment was conducted according to the Magnus method. The preparations with a tension of 0.5 g were exposed to Krebs-Henseleit solution maintained at 37° C. and gassed with a mixture of 95% oxygen and 5% carbon dioxide. The cardiac contractility was isometrically measured with a force-displacement transducer, and heart rate was recorded on a rectigram via a tachometer. The drug was added cumulatively. The drug efficacy was evaluated as the concentration of the drug required to produce 50% increase of heart rate per minute (i.e., EC50 value). In this experiment, increase of heart rate per minute after addition of 10^−8M of isoproterenol was expressed as 100%.

[2] = target: T2, β2-adrenoceptor (Rattus norvegicus, UniProt P10608); experiment: β2-adrenoceptor stimulating effects, isolated pregnant rat uterus contraction inhibition (Magnus method); format: cell-based; settings: isolated uteri of pregnant SD rats (pregnancy day 21); spontaneous contractions summed over 5 minutes; read-out: EC50 (concentration producing 50% inhibition of uterine contraction)
T2 construct: Uteri of pregnant SD rats (pregnancy day 21) were isolated; from tissue; host or cells: longitudinal uterine strips of pregnant SD rats (day 21)
T2 sequence (P10608 whole entry): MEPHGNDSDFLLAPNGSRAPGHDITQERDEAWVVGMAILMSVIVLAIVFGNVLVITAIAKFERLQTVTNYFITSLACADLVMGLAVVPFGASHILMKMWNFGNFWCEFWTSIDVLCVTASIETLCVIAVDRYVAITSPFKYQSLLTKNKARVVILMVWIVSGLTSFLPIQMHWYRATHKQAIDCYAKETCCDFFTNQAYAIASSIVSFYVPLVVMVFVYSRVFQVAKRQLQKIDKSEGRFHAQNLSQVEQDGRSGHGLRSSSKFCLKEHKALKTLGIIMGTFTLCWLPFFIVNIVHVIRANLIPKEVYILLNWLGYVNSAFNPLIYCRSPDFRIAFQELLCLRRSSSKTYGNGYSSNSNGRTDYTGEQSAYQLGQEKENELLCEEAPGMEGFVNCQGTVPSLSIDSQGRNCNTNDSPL
Procedure: Also, uteri of pregnant rats were isolated and preparations were made. The experiment was conducted according to the Magnus method. The sum of uterine contractions during 5 minutes before the addition of the drug was expressed as 100%. The drug was added cumulatively. The β2-adrenoceptor stimulating effects were evaluated as the concentration of the drug required when the sum of the contractions during 5 minutes after the addition of the drug produces 50% decrease of the sum of the contractions during 5 minutes before the addition of the drug (i.e., EC50 value).
The Experiment for Measuring β2-Adrenoceptor Stimulating Effects
Uteri of pregnant SD rats (pregnancy day 21) were isolated and longitudinal strips of approximately 15 mm in length and approximately 5 mm in width free from the basal plate were prepared. The experiment was conducted according to the Magnus method. The preparations with a tension of 0.5 g were exposed to Locke-Ringer solution maintained at 37° C. and gassed with a mixture of 95% oxygen and 5% carbon dioxide. Spontaneous contractions of myometrium were isometrically measured with a force-displacement transducer and recorded on a rectigram. The drug was cumulatively added to the Magnus bath every 5 minutes. The drug efficacy was evaluated as the concentration of the drug required to produce 50% of the inhibition of uterine contraction (i.e., EC50 value) by comparing the sum of uterine contraction during 5 minutes after the addition of the drug with the sum of uterine contractions during 5 minutes before the addition of the drug which was expressed as 100%.

[3] = target: β3-adrenoceptor (Mustela putorius furo, UniProt M3YEU4); experiment: β3-adrenoceptor stimulating effects, isolated ferret urinary bladder smooth muscle relaxation (Magnus method); format: cell-based; settings: isolated male ferret urinary bladder smooth muscle strips; 0% = maximal relaxation after 10^−5M forskolin; read-out: EC50 (concentration producing 50% decrease of urinary bladder tension)
Sequence of β3-adrenoceptor (M3YEU4 entry or part of it): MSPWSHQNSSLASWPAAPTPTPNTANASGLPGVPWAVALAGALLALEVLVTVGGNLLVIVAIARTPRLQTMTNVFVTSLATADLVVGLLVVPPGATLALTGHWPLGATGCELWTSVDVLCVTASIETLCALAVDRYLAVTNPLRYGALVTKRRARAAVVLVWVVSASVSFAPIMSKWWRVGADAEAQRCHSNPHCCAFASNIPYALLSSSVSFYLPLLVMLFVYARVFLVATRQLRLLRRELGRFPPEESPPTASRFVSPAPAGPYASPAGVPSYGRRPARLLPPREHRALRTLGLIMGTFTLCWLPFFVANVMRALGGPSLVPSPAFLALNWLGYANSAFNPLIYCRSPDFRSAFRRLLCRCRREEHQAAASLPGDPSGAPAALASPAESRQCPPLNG
Procedure: Namely, urinary bladders of ferrets were isolated and preparations were made. The experiment was conducted according to the Magnus method. The […] tension without the addition of the drug is expressed as 100%, and the tension of maximal relaxation after the addition of 10^−5M of forscolin was expressed as 0%. The drug was added cumulatively. The β3-adrenoceptor stimulating effects were evaluated as the concentration of the drug required to produce 50% decrease of the tension (i.e., EC50 value) (The Japanese Journal of Urology, Vol.89, No.2, p.272 (1998)).
The Experiment for Measuring β3-Adrenoceptor Stimulating Effects
Urinary bladders of male ferrets (1100 to 1400 g in body weight) were isolated and urinary bladder smooth muscle strips of approximately 10 mm in length and approximately 2 mm in width were prepared. The experiment was conducted according to the Magnus method. The preparations with a tension of 1 g were exposed to Krebs-Henseleit solution maintained at 37° C. and gassed with a mixture of 95% oxygen and 5% carbon dioxide. Basal tensions of urinary bladder were isometrically measured with a force-displacement transducer and recorded on a rectigram. […] In this experiment, tension of urinary bladder smooth muscle before the addition of the drug was expressed as 100% and tension of maximal relaxation after the addition of 10^−5M concentration of forskolin was expressed as 0%.

[4] = system: male ICR rats; experiment: Acute toxicity test; format: in vivo
From the text: Furthermore, the compounds represented by the above general formula (I) of the present invention are very safe compounds.

pEC50 [2] | Compound | pEC50 [1] | pEC50 [3] | death of animals in acute toxicity test ([4]; male ICR rats of 4 weeks age, intravenous, 400 mg/kg, during 24 hours after administration, 400 mg/kg) | death of animals in acute toxicity test ([4]; male ICR rats of 4 weeks age, intravenous, 400 mg/kg, during 24 hours after administration; 400 mg/kg))
7.35 | CCOC(=O)C(C)(C)Oc1ccc(CCN[C@@H](C)[C@H](O)c2ccc(O)cc2)c(Cl)c1 [Compound 7, Ethyl 2-[3-chloro-4-[2-[[(1S,2R)-2-hydroxy-2-(4-hydroxy-phenyl)-1-methylethyl]amino]ethyl]phenoxy]-2-methyl-propionate hydrochloride] | 6.52 |  |  | 
5.41 | C[C@H](NCCc1ccc(OC(C)(C)C(=O)O)cc1)[C@H](O)c1ccc(O)cc1 [Compound 10, 2-[4-[2-[[(1S,2R)-2-Hydroxy-2-(4-hydroxyphenyl)-1-methyl-ethyl]amino]ethyl]phenoxy]-2-methylpropionic acid] |  |  |  | 
4.42 | C[C@H](NCCc1ccc(OC(C)(C)C(=O)O)c(Cl)c1)[C@H](O)c1ccc(O)cc1 [Compound 11, 2-[2-Chloro-4-[2-[[(1S,2R)-2-hydroxy-2-(4-hydroxyphenyl)-1-methylethyl]amino]ethyl]phenoxy]-2-methylpropionic acid] | < 4.00 |  |  | 
< 4.00 | Cc1cc(CCN[C@@H](C)[C@H](O)c2ccc(O)cc2)ccc1OC(C)(C)C(=O)O [Compound 12] | < 4.00 |  |  | 
4.96 | C[C@H](NCCc1ccc(NC(C)(C)C(=O)O)cc1)[C@H](O)c1ccc(O)cc1 [Compound 13, 2-[[4-[2-[[(1S,2R)-2-Hydroxy-2-(4-hydroxyphenyl)-1-methyl-ethyl]amino]ethyl]phenyl]amino]-2-methylpropionic acid] | 4.41 |  |  | 
5.85 | C[C@H](NCCc1ccc(NC(C)(C)C(=O)O)cc1Cl)[C@H](O)c1ccc(O)cc1 [Compound 14, 2-[[3-Chloro-4-[2-[[(1S,2R)-2-hydroxy-2-(4-hydroxyphenyl)-1-methylethyl]amino]ethyl]phenyl]amino]-2-methylpropionic acid] | 5.66 |  |  | 

Compound | pEC50 [2] | pEC50 [1] | pEC50 [3] | death of animals in acute toxicity test ([4]; male ICR rats of 4 weeks age, intravenous, 400 mg/kg, during 24 hours after administration, 400 mg/kg) | death of animals in acute toxicity test ([4]; male ICR rats of 4 weeks age, intravenous, 400 mg/kg, during 24 hours after administration; 400 mg/kg))
C[C@H](Cc1ccc(OCC(=O)O)cc1)NC[C@H](O)c1cccc(Cl)c1 [BRL-37344, reference compound] | 8.05 | 6.57 | 8.80 |  | 
C[C@H](NCCc1ccc(OC(C)(C)C(=O)O)cc1Cl)[C@H](O)c1ccc(O)cc1 [Compound 9, 2-[3-Chloro-4-[2-[[(1S,2R)-2-hydroxy-2-(4--hydroxyphenyl)-1-methylethyl]amino]ethyl]phenoxy]-2-methylpropionic acid] | 5.51 | 4.46 |  | no death was observed | No death of animals was observed
